From PMC3473359, “Formation of a heterooctameric complex between aspartate α-decarboxylase and its cognate activating factor, PanZ, is CoA-dependent” (Biochemical and Biophysical Research Communications, 2012)

What was measured:
PanZ [1] = target: T1, PanZ (Escherichia coli, UniProt P37613); test: isothermal titration calorimetry; assay type: binding
T1 construct: His-tagged PanZ from pCA24N(-GFP)-his-panZ, expressed in E. coli delta-panD delta-panZ (DE3); Ni-NTA and Superdex 75; monomer; copurifies partly with CoA
T1 sequence (P37613 1-127): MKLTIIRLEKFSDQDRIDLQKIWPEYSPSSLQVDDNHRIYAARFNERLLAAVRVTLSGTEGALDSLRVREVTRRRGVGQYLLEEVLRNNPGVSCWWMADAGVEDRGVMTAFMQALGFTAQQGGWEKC
Excerpt: isothermal titration calorimetry on PanZ

PanZ [2] = target: T1, PanZ; test: isothermal titration calorimetry; assay type: binding; conditions: pH 7.4, 25 °C; sample contains copurified CoA

Kd (PanZ [1])	Structure (SMILES)	isothermal titration calorimetry (PanZ [2])
1950 ± 160 nM	CC(C)(COP(=O)(O)OP(=O)(O)OC[C@H]1O[C@@H](n2cnc3c(N)ncnc32)[C@H](O)[C@@H]1OP(=O)(O)O)[C@@H](O)C(=O)NCCC(=O)NCCS [CoA]	
	CC(=O)SCCNC(=O)CCNC(=O)[C@H](O)C(C)(C)COP(=O)(O)OP(=O)(O)OC[C@H]1O[C@@H](n2cnc3c(N)ncnc32)[C@H](O)[C@@H]1OP(=O)(O)O [acetyl CoA]	titration of CoA and AcCoA into PanZ showed binding
